According to US10273283B2, “Modified integrin polypeptides, modified integrin polypeptide dimers, and uses thereof” (THE CHILDREN'S MEDICAL CENTER CORPORATION, priority 2014, dated 2019):
Ends that are not written are not given here.

Experiments:
αvβ3 headpiece = target: T1, αvβ3 headpiece (Homo sapiens, UniProt P05106+P06756, M430C/Q293C); experiment: Competition binding with FITC-[…] by fluorescence anisotropy, αvβ3 headpiece; settings: FIG. 1D
T1 construct: The αv headpiece (residues 1-594) with M400C mutation was followed by a 3C protease site; β6 headpiece residues 1-474 with I270C or β3 headpiece residues 1-472 with Q267C were followed by the 3C site; 3C protease site (C, cleaved yes); ACID coiled-coil (C, cleaved yes); Strep-II tag (C, cleaved yes); His tag (C, cleaved yes); 3C site (C, cleaved yes); BASE coiled-coil (C, cleaved yes); made in house; host or cells: HEK293s Gnt I- cells
Description: (§1) Ligands bind to the integrin headpiece, which contains the α-subunit β-propeller domain and thigh domain, and the β-subunit βI, hybrid, PSI, and EGF1 domain. […] (SEQ ID NO: 68), peptide affinity for the αvβ6 and αvβ3 headpiece was measured with fluorescence anisotropy.
(§2) Binding affinities were calculated as described in Ref. 23. […] Competition binding assays used 200 nM αvβ6 or 4 μM αvβ3 headpiece, 5 nM of fluorescence probe, and competing peptide serially diluted in 3-fold decrement from 500 μM to 0.5 nM.

integrin αvβ6 headpiece = target: T2, integrin αvβ6 headpiece (Homo sapiens, UniProt P06756+P18564, I287C/M430C); experiment: Saturation binding of fluorescence probe to αvβ6 headpiece by fluorescence anisotropy; settings: buffer at indicated pH, FIG. 2C
T2 construct: The αv headpiece (residues 1-594) with M400C mutation was followed by a 3C protease site; β6 headpiece residues 1-474 with I270C or β3 headpiece residues 1-472 with Q267C were followed by the 3C site; 3C protease site (C, cleaved yes); ACID coiled-coil (C, cleaved yes); Strep-II tag (C, cleaved yes); His tag (C, cleaved yes); 3C site (C, cleaved yes); BASE coiled-coil (C, cleaved yes); made in house; host or cells: HEK293s Gnt I- cells
Description: A fluorescence probe for integrin αvβ6, the sequence of which is FITC-[…] (SEQ ID NO: 68), was synthesized. […] By competition binding assay, the affinities of Different Ligands were Measured.
Fluorescence anisotropy was in 150 mM NaCl, 1 mM Mg^2+/Ca^2+, 20 mM HEPES, pH 7.4 or buffer at indicated pH with 5 nM fluorescence probe (FITC-pro-TGF-β3 peptide, FITC-[…] (SEQ ID NO: 68)). Binding affinities were calculated as described in Ref. 23. In saturation binding assays, the anisotropy of the fluorescence probe was measured while αvβ6 headpiece (starting at 2.67 μM) or αvβ3 headpiece (starting at 75 μM) was serially diluted in 3-fold decrements. Competition binding assays used 200 nM αvβ6 or 4 μM αvβ3 headpiece, 5 nM of fluorescence probe, and competing peptide serially diluted in 3-fold decrement from 500 μM to 0.5 nM.

αvβ6 headpiece = target: T3, αvβ6 headpiece (Homo sapiens, UniProt P06756+P18564, I287C/M430C); experiment: Competition binding with FITC-[…] by fluorescence anisotropy, αvβ6 headpiece; settings: FIG. 1C
T3 construct: The αv headpiece (residues 1-594) with M400C mutation was followed by a 3C protease site; β6 headpiece residues 1-474 with I270C or β3 headpiece residues 1-472 with Q267C were followed by the 3C site; 3C protease site (C, cleaved yes); ACID coiled-coil (C, cleaved yes); Strep-II tag (C, cleaved yes); His tag (C, cleaved yes); 3C site (C, cleaved yes); BASE coiled-coil (C, cleaved yes); made in house; host or cells: HEK293s Gnt I- cells
Description: as §1, §2

Sequence: GRGDLGRLK [pro-TGF-β3 nonapeptide, GRGDLGRLK (SEQ ID NO: 75)]
- Fold lower affinity for αvβ3 than for αvβ6 (αvβ3 headpiece): 1,000 fold
- Effect of pH on affinity of αvβ6 for the peptide (integrin αvβ6 headpiece): sharp decrease in affinity between pH 7 and 6

Sequence: TSGDQKTIK [pro-TGF-β2 peptide]
- Fold lower affinity for αvβ6 than the pro-TGF-β1/β3 peptides (αvβ6 headpiece): 1,000 fold
